Measurements: ChEMBL document CHEMBL1135547, “Anticholinesterase activity of compounds related to geneserine tautomers. N-Oxides and 1,2-oxazines” (J Med Chem, 2002)

Tests used:
[1] = target: Acetylcholinesterase (Homo sapiens, UniProt P22303)
Description: Ex vivo inhibition of human erythrocyte Acetylcholinesterase.

[2] = target: Cholinesterase (Homo sapiens, UniProt P06276)
Chain of Cholinesterase (P06276 whole entry): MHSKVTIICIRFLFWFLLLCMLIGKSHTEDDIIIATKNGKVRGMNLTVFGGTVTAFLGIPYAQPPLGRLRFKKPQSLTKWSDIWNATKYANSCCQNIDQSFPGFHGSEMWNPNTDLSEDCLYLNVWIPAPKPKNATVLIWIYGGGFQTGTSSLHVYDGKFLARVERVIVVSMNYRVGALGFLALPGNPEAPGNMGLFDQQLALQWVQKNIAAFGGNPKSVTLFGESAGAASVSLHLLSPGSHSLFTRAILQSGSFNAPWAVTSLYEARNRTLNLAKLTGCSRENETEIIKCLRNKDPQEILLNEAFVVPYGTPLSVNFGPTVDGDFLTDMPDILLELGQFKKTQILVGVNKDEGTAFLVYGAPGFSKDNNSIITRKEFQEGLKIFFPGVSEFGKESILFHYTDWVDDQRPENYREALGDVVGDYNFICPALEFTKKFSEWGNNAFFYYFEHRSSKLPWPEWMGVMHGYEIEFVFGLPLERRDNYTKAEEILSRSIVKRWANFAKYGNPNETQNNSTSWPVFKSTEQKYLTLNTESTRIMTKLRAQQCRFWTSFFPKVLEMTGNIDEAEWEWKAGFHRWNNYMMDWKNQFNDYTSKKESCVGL
Description: Ex vivo inhibition of human plasma Butyrylcholinesterase.

Chain of Acetylcholinesterase (P22303 whole entry): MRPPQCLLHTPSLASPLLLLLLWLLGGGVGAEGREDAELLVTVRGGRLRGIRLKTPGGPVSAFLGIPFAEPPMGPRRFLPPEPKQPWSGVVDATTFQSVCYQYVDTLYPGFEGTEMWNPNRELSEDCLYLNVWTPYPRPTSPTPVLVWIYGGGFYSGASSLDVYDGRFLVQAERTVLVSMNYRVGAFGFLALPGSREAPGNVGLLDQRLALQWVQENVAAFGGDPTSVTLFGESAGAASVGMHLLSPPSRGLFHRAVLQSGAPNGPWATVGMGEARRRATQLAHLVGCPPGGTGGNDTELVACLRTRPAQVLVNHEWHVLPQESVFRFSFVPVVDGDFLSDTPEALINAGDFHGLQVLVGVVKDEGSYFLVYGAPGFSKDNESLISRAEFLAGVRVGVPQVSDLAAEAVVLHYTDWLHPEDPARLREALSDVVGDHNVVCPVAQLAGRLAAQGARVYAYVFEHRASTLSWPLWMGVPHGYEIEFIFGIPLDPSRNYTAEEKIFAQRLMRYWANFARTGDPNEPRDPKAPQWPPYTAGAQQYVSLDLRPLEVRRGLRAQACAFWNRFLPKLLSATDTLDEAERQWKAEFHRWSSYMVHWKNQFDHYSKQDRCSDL

Row | SMILES | IC50 [1] [nM] | IC50 [2] [nM]
1 | CN1CC[C@@]2(C)c3cc(OC(=O)Nc4ccccc4)ccc3N(C)[C@H]2O1 | 130 | 815
2 | Cc1ccccc1NC(=O)Oc1ccc2c(c1)[C@]1(C)CCN(C)O[C@@H]1N2C | 175 | 1570
3 | CC(C)c1ccc(NC(=O)Oc2ccc3c(c2)[C@]2(C)CCN(C)O[C@@H]2N3C)cc1 | > 10000 | 25
4 | CCc1ccccc1NC(=O)Oc1ccc2c(c1)[C@]1(C)CC[N@@+](C)([O-])[C@@H]1N2C | 125 | 1700
5 | CNC(=O)Oc1ccc2c(c1)[C@]1(C)CC[N@@+](C)([O-])[C@@H]1N2C | 100 | 660
6 | CN1c2ccc(OC(=O)Nc3ccccc3)cc2[C@]2(C)CC[N@@+](C)([O-])[C@H]12 | 200 | > 10000
7 | Cc1ccccc1NC(=O)Oc1ccc2c(c1)[C@]1(C)CC[N@@+](C)([O-])[C@@H]1N2C | 180 | > 10000
8 | CC(C)c1ccc(NC(=O)Oc2ccc3c(c2)[C@]2(C)CC[N@@+](C)([O-])[C@@H]2N3C)cc1 | > 10000 | 5200
9 | CCCCCCCNC(=O)Oc1ccc2c(c1)[C@]1(C)CCN(C)[C@@H]1N2C [EPTASTIGMINE] | 22 | 5
10 | CNC(=O)Oc1ccc2c(c1)[C@]1(C)CCN(C)O[C@@H]1N2C [ESERIDINE] |  | 12
11 | CCc1ccccc1NC(=O)Oc1ccc2c(c1)[C@]1(C)CCN(C)O[C@@H]1N2C [GANSTIGMINE] | 65 | 310
12 | C/C=C1\[C@H]2C=C(C)C[C@]1(N)c1ccc(=O)[nH]c1C2 [HUPERZINE A] |  | > 10000
